The values that follow are results of earlier work, collected in US20090202609A1, “MEDICAL DEVICE WITH COATING COMPOSITION” (priority 2008, published 2009).

For series [1] the following is noted: systemic.
The test system of series [2] is bacteria. Conditions: effective systemic concentration.

As for `NC[C@H]1O[C@H](O[C@H]2[C@H](O)[C@@H](O[C@H]3O[C@H](CO)[C@@H](O)[C@H](N)[C@H]3O)[C@H](N)C[C@@H]2N)[C@H](N)C[C@@H]1O` [tobramycin], the system-wide toxic concentration result in series [1] is “about 400 mcg/ml”. Also, in series [2], the “effective concentration to actively control bacteria” value was ≤ 4 µg/mL.
